Laboratory results from PMC9046087, “Structural basis of tethered agonism of the adhesion GPCRs ADGRD1 and ADGRF1” (Nature, 2022).

Experiments:
ADGRF1 [1] = assay: Identification of phospholipid ligands by LC–MS/MS; assay type: binding, human
Method: The identification of phospholipids specifically bound to ADGRF1 was performed as previously described[33],[50] with minor modifications. In brief, ADGRF1 and control ADGRD1 protein were reduced with 5 mM TCEP at 25 °C for 30 min and alkylated with 20 mM idoacetamide at 25 °C for 30 min. Then the protein samples were digested with trypsin (Promega) at an enzyme-to-protein ratio of 1:50 (w/w) at 37 °C overnight. The digested proteins were dried in a vacuum concentrator and then extracted with 400 μl of ice-cold methanol:water (9:1, v/v) by vortex and sonication. After centrifugation at 12,000g for 15 min at 4 °C, the supernatants were collected and lyophilized under vacuum. The lipid extracts were resuspended in methanol:chloroform (9:1, v/v) to an equivalent concentration of 2 μM. Samples were analysed on a Q Exactive mass spectrometer (Thermo Fisher Scientific) operating in the positive ion mode coupled to a Waters Acquity UPLC system (Waters). […] The specificity of lipid binding to ADGRF1 was assessed by the ratio of EIC peak areas for each lipid in the ADGRF1 versus the control sample. […]

ADGRF1 [2] = conditions: cited from earlier work
[3] = test system: neurogenesis, neuritogenesis and synaptogenesis; conditions: ref [35]; cited from earlier work
[4] = molecular target: T1, ADGRD1 (GPR133), residues T545–T827 (ADGRD1-construct) (human) (UniProt Q6QNK2)
T1 sequence: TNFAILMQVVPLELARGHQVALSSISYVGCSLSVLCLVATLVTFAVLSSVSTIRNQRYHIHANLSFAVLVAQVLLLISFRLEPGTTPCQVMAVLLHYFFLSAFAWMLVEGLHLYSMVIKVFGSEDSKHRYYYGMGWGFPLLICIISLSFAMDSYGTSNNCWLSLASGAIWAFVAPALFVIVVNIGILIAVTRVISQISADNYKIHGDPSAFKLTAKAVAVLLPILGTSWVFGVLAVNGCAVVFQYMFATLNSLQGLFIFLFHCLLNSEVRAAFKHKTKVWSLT

[5] = molecular target: T2, ADGRF1 (GPR110), residues V251–K860 (ADGRF1-construct 1) (human) (UniProt Q5T601)
T2 sequence: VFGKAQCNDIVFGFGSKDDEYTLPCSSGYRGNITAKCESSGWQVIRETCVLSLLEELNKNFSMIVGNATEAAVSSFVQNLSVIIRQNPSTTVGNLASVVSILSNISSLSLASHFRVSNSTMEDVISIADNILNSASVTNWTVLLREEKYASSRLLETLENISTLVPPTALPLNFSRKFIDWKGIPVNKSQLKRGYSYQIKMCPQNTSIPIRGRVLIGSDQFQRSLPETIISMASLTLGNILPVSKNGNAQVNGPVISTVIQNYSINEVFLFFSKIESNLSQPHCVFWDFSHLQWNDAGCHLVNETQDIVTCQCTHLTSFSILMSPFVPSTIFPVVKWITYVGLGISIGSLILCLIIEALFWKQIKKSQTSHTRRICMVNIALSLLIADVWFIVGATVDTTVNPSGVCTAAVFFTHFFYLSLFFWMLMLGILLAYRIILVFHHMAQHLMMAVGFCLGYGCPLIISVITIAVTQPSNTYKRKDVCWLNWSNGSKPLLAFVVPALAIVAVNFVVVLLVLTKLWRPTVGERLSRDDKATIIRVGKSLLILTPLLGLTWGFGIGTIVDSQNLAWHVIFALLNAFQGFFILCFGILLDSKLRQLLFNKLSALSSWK

For CCCCCCCCCCCCCCCC(=O)OC[C@@H](O)COP(=O)([O-])OCC[N+](C)(C)C [LPC 16:0], which “specific binding to ADGRF1 (lipidomics)” value (ADGRF1 [1]; ADGRD1 as control, specific binder: mean EIC ratio > 2 and P < 0.05, n = 3) is on record?
Its value is “bound specifically to ADGRF1”.

And the “EIC peak ratio, ADGRF1 versus ADGRD1 (mean)” value (ADGRF1 [1]; ADGRD1 protein as control, methanol:water lipid extract, P < 0.05, three independent experiments)?
Its value is over 2.

Which “stalk dependence of ADGRF1 activation” value (ADGRF1 [2]; believed to act through the extracellular GAIN domain, ref [36]) does the source give for CC/C=C\C/C=C\C/C=C\C/C=C\C/C=C\C/C=C\CCC(=O)NCCO [synaptamide, N-docosahexaenoylethanolamine] here?
The value was “activates the receptor in a stalk-independent manner”.

And the “agonism at ADGRF1” value (ADGRF1 [2]; ref [35])?
Its value is “endogenous small-molecule agonist for ADGRF1”.

And the “neurogenesis, neuritogenesis and synaptogenesis” value [3]?
Its value is “promotes neurogenesis, neuritogenesis and synaptogenesis”.

With TSFSILMSPFVP [synthetic stalk peptide of ADGRF1 (pF1)] as the molecule, how does the fold decrease in G protein activation of wild-type ADGRD1 in HEK293F cells (BRET assay with TRUPATH biosensors): potency of pF1 against that of pD1 [4] read?
Its fold decrease in G protein activation of wild-type ADGRD1 in HEK293F cells (BRET assay with TRUPATH biosensors): potency of pF1 against that of pD1 is 59 fold.

Which G protein activation of wild-type ADGRF1 in HEK293F cells (BRET assay with TRUPATH biosensors): EC50 of pD1 against that of pF1 [5] does the source give for TNFAILMQVVPLE [synthetic stalk peptide of ADGRD1 (pD1)] here?
Its G protein activation of wild-type ADGRF1 in HEK293F cells (BRET assay with TRUPATH biosensors): EC50 of pD1 against that of pF1 is 2 fold.
